We go through three compounds from paper PMC5852967, “Specific features of L-histidine production by Escherichia coli concerned with feedback control of AICAR formation and inorganic phosphate/metal transport” (Microbial Cell Factories, 2018).

Common to all, as to assay type: biochemical
The target in test [1] is T1, ATP-phosphoribosyltransferase (ATP-PRT, HisG) (Escherichia coli, UniProt P60757).
T1 construct: N-terminal His6-Tag HisG (HT-HisG)
T1 sequence (P60757 1-299): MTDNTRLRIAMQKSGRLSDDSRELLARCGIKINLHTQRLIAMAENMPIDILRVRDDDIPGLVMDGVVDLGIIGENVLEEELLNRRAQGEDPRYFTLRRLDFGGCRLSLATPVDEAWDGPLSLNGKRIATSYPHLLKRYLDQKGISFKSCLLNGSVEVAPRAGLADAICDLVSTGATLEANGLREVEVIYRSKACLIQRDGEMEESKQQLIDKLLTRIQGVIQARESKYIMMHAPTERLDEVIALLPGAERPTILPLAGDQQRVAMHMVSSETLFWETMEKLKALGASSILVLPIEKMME
The experiment in a line: PR-ATP formation at […] nm with purified enzyme; Lineweaver–Burk plot.

For test [2], the target named is T2, HisG^E271K feedback-resistant ATP-phosphoribosyltransferase (Escherichia coli, UniProt P60757, E271K).
T2 construct: His6-tagged HisG^E271K (HT-HisG^E271K)
The experiment in a line: PR-ATP formation at […] nm with purified enzyme; % inhibition at […]. The conditions noted are these: read-out: Inhibition, % / AICAR / 1 mM.

The target in test [3] is T1, ATP-phosphoribosyltransferase (ATP-PRT, HisG). The experiment in a line: PR-ATP formation at […] nm from ATP and PRPP with purified enzyme.

pKi: −log10 of the molar value.

Take `Nc1ncnc2c1ncn2[C@@H]1O[C@H](COP(=O)(O)O)[C@@H](O)[C@H]1O` [AMP]: the pKi in test [1] is 2.67.
For the compound `NC(=O)c1ncn([C@@H]2O[C@H](COP(=O)(O)O)[C@@H](O)[C@H]2O)c1N` [AICAR, 5-aminoimidazole-4-carboxamide-1-beta-D-ribofuranosyl 5′-monophosphate], the inhibition at 1000 µM in test [2] was 52%. In test [1], this compound gave a pKi of 3.19.
Consider `Nc1ncnc2c1ncn2[C@@H]1O[C@H](COP(=O)(O)OP(=O)(O)OP(=O)(O)O)[C@@H](O)[C@H]1O` [ATP], for which the “PR-ATP formation at 290 nm from ATP and PRPP with purified enzyme” value in test [3] is recorded as “Both tested substances compete with ATP in HisG-catalyzed reactions”.
